The text below walks through data of patent US20250215014A1, “KINASE INHIBITORS, PREPARATION METHODS AND USES THEREOF” (InventisBio Co., Ltd., priority 2022, published 2025).

The target in one assay is DGKz (Homo sapiens (Human), UniProt Q13574). Put plainly: DGK ADP-Glo Kinase Assay (DGKz). Type of assay: biochemical. The conditions noted are these: 5 nM DGKz, 15 uM ATP. Here is the method:
(§1) Luminescence was recorded using an Tecan SPARK microplate reader.

In a further assay the target is DGKa (Homo sapiens (Human), UniProt P23743). Put plainly: DGK ADP-Glo Kinase Assay (DGKa). Type of assay: biochemical. Conditions: 10 nM DGKa, 15 uM ATP. Here is the method: as §1
Sequence of DGKa (P23743 whole entry): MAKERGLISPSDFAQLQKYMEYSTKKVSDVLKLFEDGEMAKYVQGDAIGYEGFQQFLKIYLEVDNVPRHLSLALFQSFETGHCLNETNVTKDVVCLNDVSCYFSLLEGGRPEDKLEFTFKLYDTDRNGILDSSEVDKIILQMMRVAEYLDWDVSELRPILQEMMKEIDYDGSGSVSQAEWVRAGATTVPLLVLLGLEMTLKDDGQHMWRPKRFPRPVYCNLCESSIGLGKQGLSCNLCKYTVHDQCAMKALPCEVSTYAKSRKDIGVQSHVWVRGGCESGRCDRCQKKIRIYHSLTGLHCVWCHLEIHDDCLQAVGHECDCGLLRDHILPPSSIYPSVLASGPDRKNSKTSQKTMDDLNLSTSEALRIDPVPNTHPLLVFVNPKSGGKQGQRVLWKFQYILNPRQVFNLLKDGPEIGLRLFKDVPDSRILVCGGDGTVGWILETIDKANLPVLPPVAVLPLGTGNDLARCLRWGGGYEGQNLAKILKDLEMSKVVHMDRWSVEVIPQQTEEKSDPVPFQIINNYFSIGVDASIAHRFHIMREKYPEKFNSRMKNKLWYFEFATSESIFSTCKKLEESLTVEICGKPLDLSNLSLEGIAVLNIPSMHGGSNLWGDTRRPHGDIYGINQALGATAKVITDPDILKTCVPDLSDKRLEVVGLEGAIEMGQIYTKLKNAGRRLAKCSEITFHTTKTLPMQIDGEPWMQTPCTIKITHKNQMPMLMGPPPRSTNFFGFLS

Sequence of DGKz (Q13574 whole entry): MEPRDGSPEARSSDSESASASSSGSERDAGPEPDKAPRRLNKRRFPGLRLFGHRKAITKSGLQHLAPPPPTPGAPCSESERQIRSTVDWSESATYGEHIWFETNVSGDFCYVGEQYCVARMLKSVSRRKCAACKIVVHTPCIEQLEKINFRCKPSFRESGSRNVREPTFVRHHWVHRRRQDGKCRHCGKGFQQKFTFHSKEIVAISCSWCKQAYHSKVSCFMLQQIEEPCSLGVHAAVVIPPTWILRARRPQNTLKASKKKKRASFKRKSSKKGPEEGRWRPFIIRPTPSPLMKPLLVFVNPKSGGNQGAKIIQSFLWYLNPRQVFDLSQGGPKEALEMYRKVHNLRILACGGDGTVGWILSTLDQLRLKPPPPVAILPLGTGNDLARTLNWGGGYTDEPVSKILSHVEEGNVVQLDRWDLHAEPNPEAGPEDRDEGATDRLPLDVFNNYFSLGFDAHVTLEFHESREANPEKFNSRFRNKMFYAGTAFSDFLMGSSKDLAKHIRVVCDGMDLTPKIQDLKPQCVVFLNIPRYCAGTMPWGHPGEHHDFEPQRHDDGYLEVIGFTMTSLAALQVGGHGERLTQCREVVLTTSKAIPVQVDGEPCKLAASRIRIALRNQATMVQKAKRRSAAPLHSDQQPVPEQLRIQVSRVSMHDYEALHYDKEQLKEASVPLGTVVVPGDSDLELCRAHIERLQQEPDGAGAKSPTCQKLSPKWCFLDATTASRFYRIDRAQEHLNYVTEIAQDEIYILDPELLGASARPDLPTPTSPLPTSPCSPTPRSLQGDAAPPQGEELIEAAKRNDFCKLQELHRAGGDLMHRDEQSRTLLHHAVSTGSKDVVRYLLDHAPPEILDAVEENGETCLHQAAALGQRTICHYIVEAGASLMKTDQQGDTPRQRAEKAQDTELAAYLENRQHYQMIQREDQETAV

Consider `CC[C@H]1CN([C@H](CC)c2ccc(C(F)(F)F)cc2)[C@H](CC)CN1c1nc2nncn2c2ccc(C#N)nc12` (single isomer, unassigned) [Compound 110], for which the IC50 is 100 to 1000 nM at DGKz and under 100 nM against DGKa.
For `CC[C@H]1CN([C@H](CC)c2ccc(C(F)(F)F)cc2)[C@H](CC)CN1c1nc2nncn2c2ccc(C#N)nc12` (single isomer, unassigned) [Compound 35], in that order: 100 to 1000 nM and under 100 nM.
Regarding `CC[C@H]1CN([C@H](CC)c2nc(C3CC3)no2)[C@H](CC)CN1c1nc2nncn2c2ccc(C#N)nc12` [Compound 120], the IC50 was 100 to 1000 nM on DGKz and under 100 nM against DGKa.
For `CC[C@H]1C[C@]2(CCN1c1nc(=O)n(C)c3ccc(C#N)nc13)CC(c1ccc(OC(F)(F)F)cc1)=NO2` (stereo in doubt) [Compound 74], in that order: over 1000 nM and under 100 nM.
For `CC[C@H]1C[C@H](Oc2ccc(OC(F)(F)F)cc2)CCN1c1nc(=O)n(C)c2ccc(C#N)nc12` (stereo in doubt) [Compound 18] the same measures were 100 to 1000 nM and under 100 nM.
In the case of `CC[C@H]1CN([C@@H](CC)c2ccc(C(F)(F)F)cc2)[C@H](CC)CN1c1nc2nncn2c2ccc(C#N)nc12` (single isomer, unassigned) [Compound 109], the IC50 at DGKz and against DGKa was under 100 nM throughout.
`Cn1c(=O)nc(N2CCC3(CC2)COC(c2ccc(OC(F)(F)F)cc2)=N3)c2nc(Cl)ccc21` [Compound 37]: the IC50 against DGKz is 100 to 1000 nM; on DGKa, under 100 nM.
In the case of `CC[C@@H]1CN2c3c(c(=O)n(C)c4ccc(C#N)nc34)OC[C@@H]2CN1[C@@H](CC)c1ccc(C(F)(F)F)cc1` [Compound 121], the IC50 against DGKz is over 1000 nM; against DGKa, under 100 nM.
For `CC[C@H]1CN(C(c2ccc(S(F)(F)(F)(F)F)cc2)C2CC2)[C@H](CC)CN1c1nc(=O)n(C)c2ccc(C#N)nc12` (single isomer, unassigned) [Compound 118], the IC50 against DGKz was 100 to 1000 nM; on DGKa it was under 100 nM.
In the case of `Cc1ccc2oc(C3CCN(c4nc(=O)n(C)c5ccc(C#N)nc45)CC3)nc2c1` [Compound 20], the IC50 on DGKz and at DGKa was over 1000 nM throughout.
On to `CC[C@H]1CN([C@@H](C)c2ccc(S(F)(F)(F)(F)F)cc2)[C@H](CC)CN1c1nc2nncn2c2ccc(C#N)nc12` (stereo in doubt) [Compound 88], for which the IC50 at DGKz and against DGKa was under 100 nM throughout.
Turning to `CCC(c1ccc(C(F)(F)F)cc1)N1CCN(c2nc3nncn3c3ccc(C#N)nc23)C(CC)C1` (centres unmarked) [Compound 102], the half-maximal inhibitory concentration (IC50) at DGKz was over 1000 nM; at DGKa, under 100 nM.
For `Cc1ccccc1-n1cc(C2CCN(c3nc(=O)n(C)c4ccc(C#N)nc34)CC2)cn1` [Compound 12], in that order: over 1000 nM and over 1000 nM.
For `CC[C@H]1CN([C@@H](CC)c2ccc(S(F)(F)(F)(F)F)cc2)[C@H](CC)CN1c1nc(=O)n(C)c2ccc(C#N)nc12` [Compound 28], in that order: under 100 nM and under 100 nM.
As to `CC[C@@H]1C[C@H](c2nc3cc(C)ccc3o2)CCN1c1nc(=O)n(C)c2cc(O[C@H]3CCOC3)c(Cl)cc12` [Compound 91], the IC50 against DGKz is over 1000 nM; at DGKa, under 100 nM.
`CC[C@H]1CN([C@H](CC)c2ccc(S(F)(F)(F)(F)F)cc2)[C@H](CC)CN1c1nc(=O)n(C)c2ccc(C#N)nc12` [Compound 29]: the IC50 against DGKz and on DGKa was under 100 nM throughout.
For the compound `CC[C@@H]1CN(c2nc3nncn3c3ccc(C#N)nc23)[C@@H](C)CN1[C@@H](CC)c1ccc(SC(F)(F)F)cc1` (stereo in doubt) [Compound 66], the IC50 on DGKz and against DGKa was under 100 nM each time.
In the case of `CC[C@H]1CN([C@H](C)c2ccc(S(F)(F)(F)(F)F)cc2)[C@H](CC)CN1c1nc2nncn2c2ccc(C#N)nc12` (stereo in doubt) [Compound 89], the IC50 against DGKz is 100 to 1000 nM; at DGKa, under 100 nM.
For `CC[C@@H]1C[C@H](c2nc3cc(C)ccc3o2)CCN1c1nc(=O)n(C)c2cc(O[C@@H]3CCOC3)c(Cl)cc12` [Compound 92], in that order: under 100 nM and 100 to 1000 nM.
For `CC[C@H]1CN(C(CO)c2ccc(S(F)(F)(F)(F)F)cc2)[C@H](CC)CN1c1nc(=O)n(C)c2ccc(C#N)nc12` (some centres unmarked) [Compound 77], in that order: under 100 nM and under 100 nM.
For `CC[C@H]1CN([C@H](CC)c2ccc(OC(F)(F)F)cc2)[C@H](CC)CN1c1nc2nncn2c2ccc(C#N)nc12` (stereo in doubt) [Compound 101], in that order: 100 to 1000 nM and under 100 nM.
In the case of `CC[C@H]1CN([C@@H](CC)c2ccc(SC(F)(F)F)cc2)[C@H](CC)CN1c1nc2nncn2c2ccc(C#N)nc12` (single isomer, unassigned) [Compound 68], the IC50 on DGKz is 100 to 1000 nM; at DGKa, under 100 nM.
For `CC[C@@H]1CN(c2nc3nncn3c3ccc(C#N)nc23)[C@@H](C)CN1[C@@H](CC)c1ccc(C(F)(F)F)cc1` (single isomer, unassigned) [Compound 81] the same measures were under 100 nM and under 100 nM.
For `CC[C@H]1C[C@@H](c2nc3cc(C)ccc3o2)CCN1c1nc(=O)n(C)c2cc(O[C@H]3CCOC3)c(Cl)cc12` [Compound 93] the same measures were 100 to 1000 nM and under 100 nM.
Regarding `CC[C@H]1CN([C@H](CC)c2ccc(S(F)(F)(F)(F)F)cc2)[C@H](CC)CN1c1nc(=O)n2c3c(cc(C#N)nc13)OCC2` (stereo in doubt) [Compound 79], the IC50 against DGKz and against DGKa was 100 to 1000 nM in each case.
Turning to `CC[C@H]1CN([C@H]2CCCCc3cc(C(F)(F)F)ccc32)[C@H](CC)CN1c1nc2nncn2c2ccc(C#N)nc12` [Compound 113], the IC50 on DGKz was 100 to 1000 nM; on DGKa it was under 100 nM.
Regarding `CC[C@H]1CN(C(c2ccc(S(F)(F)(F)(F)F)cc2)C2CC2)[C@H](CC)CN1c1nc(=O)n(C)c2ccc(C#N)nc12` (single isomer, unassigned) [Compound 117], the IC50 is 100 to 1000 nM against DGKz and under 100 nM on DGKa.
In the case of `CC[C@@H]1CN(c2nc(=O)n(C)c3ccc(C#N)nc23)[C@@H](C)CN1C(c1ccc(S(F)(F)(F)(F)F)cc1)c1nc(C2CC2)no1` (some centres unmarked) [Compound 65], the IC50 against DGKz and against DGKa was under 100 nM each time.
In the case of `CC[C@@H]1CN(c2nc(=O)n(C)c3ccc(C#N)nc23)[C@@H](C)CN1[C@@H](c1ccc(F)cc1)c1ccc(SC(F)(F)F)cn1` [Compound 72], the IC50 on DGKz and on DGKa was under 100 nM in each case.
For `CCC(c1ccc(C23CC(C2)C3)nc1)N1C[C@H](CC)N(c2nc3nncn3c3ccc(C#N)nc23)C[C@H]1CC` (some centres unmarked) [Compound 104], the IC50 on DGKz and on DGKa was under 100 nM each time.
For the compound `CC[C@@H]1CN(c2nc(=O)n(C)c3ccc(C#N)nc23)[C@@H](C)CN1[C@H](CC)c1ccc(S(F)(F)(F)(F)F)cc1` (stereo in doubt) [Compound 61], the IC50 on DGKz and against DGKa was 100 to 1000 nM throughout.
On to `CC[C@H]1CN([C@H](c2ccc(SC(F)(F)F)cc2)c2nc(C3CC3)no2)[C@H](CC)CN1c1nc(=O)n(C)c2ccc(C#N)nc12` (stereo in doubt) [Compound 70], for which the IC50 against DGKz and against DGKa was under 100 nM in each case.
For `CC[C@H]1CN([C@@H](CC)c2ccc(SC(F)(F)F)cc2)[C@H](CC)CN1c1nc2nncn2c2ccc(C#N)nc12` (single isomer, unassigned) [Compound 69], the IC50 is 100 to 1000 nM against DGKz and under 100 nM on DGKa.
For `CN(c1cccc(C#CC2CC2)c1)c1nc(=O)n(C)c2ccc(C#N)nc12` [Compound 46], in that order: 100 to 1000 nM and under 100 nM.
For `CC[C@@H]1CN2c3c(c(=O)n(C)c4ccc(C#N)nc34)OC[C@@H]2CN1[C@H](CC)c1ccc(SC(F)(F)F)cc1` [Compound 124] the same measures were 100 to 1000 nM and under 100 nM.
For `CC[C@@H]1CN(c2nc(=O)n(C)c3ccc(C#N)nc23)[C@@H](C)CN1[C@H](c1ccc(F)cc1)c1ccc(SC(F)(F)F)cn1` [Compound 73], in that order: under 100 nM and under 100 nM.
As to `CC[C@H]1CN([C@H](CC)c2cccc(S(F)(F)(F)(F)F)c2)[C@H](CC)CN1c1nc(=O)n(C)c2ccc(C#N)nc12` (stereo in doubt) [Compound 55], the IC50 against DGKz and against DGKa was under 100 nM in each case.
`CC[C@@H]1CN(c2nc3nncn3c3ccc(C#N)nc23)[C@@H](CC)CN1C(=O)Nc1ccc(C(F)(F)F)cc1` [Compound 95]: the IC50 on DGKz is 100 to 1000 nM; on DGKa it was under 100 nM.
For `CC[C@H]1CN([C@@H](CC)c2nc(C3CC3)no2)[C@H](CC)CN1c1nc2nncn2c2ccc(C#N)nc12` [Compound 119], the IC50 on DGKz and against DGKa was under 100 nM in each case.
Consider `CC[C@H]1CN([C@@H](c2ccc(SC(F)(F)F)cc2)c2nc(C3CC3)cs2)[C@H](CC)CN1c1nc(=O)n(C)c2ccc(C#N)nc12` [Compound 58], for which the IC50 against DGKz was 100 to 1000 nM; against DGKa it was under 100 nM.
For `CC[C@@H]1CN2c3c(c(=O)n(C)c4ccc(C#N)nc34)OC[C@@H]2CN1[C@@H](CC)c1ccc(SC(F)(F)F)cc1` [Compound 123] the same measures were 100 to 1000 nM and under 100 nM.
For the compound `Cn1c(=O)nc(N2CCC3(CC2)CC(c2ccc(OC(F)(F)F)cc2)=NO3)c2nc(C#N)ccc21` [Compound 31], the IC50 against DGKz and at DGKa was under 100 nM throughout.
For `CC[C@@H]1CN(c2nc3nncn3c3ccc(C#N)nc23)[C@@H](CC)CN1C(=O)Cc1ccc(C(F)(F)F)cc1` [Compound 85], the results for the IC50 against DGKz and at DGKa were 100 to 1000 nM and under 100 nM, respectively.
